According to patent publication US7258861B2, “TNF-derived peptides for use in treating oedema” (Innogenetics N.V., priority 2001, dated 2007):
“And” between values parts separate entries of the source, which are not always exact repeats. Equal entries are not always repeated. Positions of bridges follow the written chain, without caps; N, C: chain ends. No end group written: not given here.

How the values were obtained:
isolated rat lungs [1] = experiment: Isolated blood perfused flooded rat lung (weight, lung mechanics, PV curves, histology)
Procedure: (§1) Rats. For the ex vivo experiments, 31 Sprague-Dawley rats (300 to 350 g) were tracheotomized and mechanically ventilated (40% oxygen in air) under isoflurane anesthesia. The experimental protocol was reviewed and approved by the Ethics Committee for Animal Research and by the Veterinary Office of our institution. The femoral vessels were cannulated for blood sampling, fluid replacement, and continuous arterial blood pressure monitoring. Following anticoagulation (1.5 IU/g i.v. heparin), 20 ml of blood were withdrawn and replaced by an equal volume of dextran-40 (Macrodex 10% in normosaline) to serve as priming volume for the isolated perfusion circuit. The heart-lung block was prepared as described by Ma et al., 2000, weighed and assigned to one of four groups. […] The lungs were suspended, mechanically ventilated, and perfused at constant pressure with autologous blood as described by Ma et al., 2000.
(§2) An inspiratory and expiratory quasi-static pressure-volume (PV) curve was performed at the end of the 2-hour reperfusion period by inflating and then deflating the lungs at a constant rate (0.3 ml/sec) using an automated infusion pump. A sigh was applied in all groups every 15 minutes to minimize atelectasis formation. The blood pH was maintained between 7.3 and 7.5 and, if necessary, corrected with sodium bicarbonate 8.4% or a change of the inspired CO2 as required by the blood gas analysis. Every 30 minutes, a blood sample was collected for blood gas analysis as well as for hematocrit and electrolyte concentration.
(§3) Inclusion criteria. Immediately following the start of reperfusion, the preparation had to fulfill three technical inclusion criteria: • 1) left atrial pressure (LAP) 5-10 mmHg; • 2) peak airway pressure (AWP) <15 cmH2O; and • 3) pulmonary blood flow (PBF) >10 ml/min. […] The included lungs were then flooded with gentle intratracheal instillation of 2 ml normal saline and the recorded variables measured for 2 subsequent hours.
(§4) Histological analysis. Random lung samples were fixed for light and electron microscopy and analyzed by pathologists blinded to the lung's protocol group assignment.

isolated rat lungs [2] = tested on: isolated rat lungs
Procedure: as §1, §2, §3, §4

[3] = tested on: left lung of Fischer (F344) rats; experiment: Rat model of lung reperfusion injury (warm ischemia and reperfusion); type: in vivo
Procedure: In a modification of the model of Ohno et al. (1993) male Fischer (F344) rats (200–250 g) undergo clamping of the left pulmonary artery, pulmonary vein and main bronchus for 36 minutes of warm ischemia. After reperfusion of the left lung, the right lung is occluded to assess the function of the left lung for 90 minutes. The peptide is given at 3 minutes after reperfusion by either instillation or intravenous injection via the subclavian vein.
• 1. Anaesthesia of the rat in a glass chamber, 4% Halothane and Oxygen 4/min. • 2. Intubation of the rat with a 1.8 mm catheter, • 3. Shaving the fur on the abdomen and left side of the animal. • 4. Ventilation via the tracheal tube 100/min, 2.5 ml 20% oxygen, Harvard Rodent Ventilator (Harvard Apparatus, South Natick, Mass.), PEEP 5 mm H2O. • 5. A left thoracotomy is carried out in the in 4th intercostal space. • 6. Dissection of the left lung hilar region. • 7. Microvascular clips are placed around the left pulmonary artery (PA), Pulmonary vein (PV) and left main bronchus (B) to induce warm ischemia of the left lung. Small circulation is still ongoing through the right lung. This is the start of the Warm Ischemia Time (WIT). • 8. Anaesthaesia is maintained with 2% Halothane, 40% Oxygen. • 9. A provisory Z suture is made to temporary close the thoracotomy and a gaze sponge is put on the animal to decrease warmth loss. • 10. Near the end of the WIT, a thoracophrenolaparatomy in the midline with thorough electrocaterisation. (two peans on the sternum). • 11. Putting 2-0 Softsilk on the trachea around the intubation tube. • 12. Dissection of the right hilar elements. • 13. Taking away microvascular clips from the left hilar elements. End of WIT of the left lung after 36 minutes. • 14. Putting microvascular clips on right PA and B. Small circulation only through left lung. Start developing of left oedema time (LLOT). • 15. After 3 minutes of LLOT: instillation of the drug in 0.5 ml of 0.9% saline solution (Baxter) or injection of the drug in 0.25–0.3 ml of 0.9% saline through the subclavian vein. • 16. After 6, 30, 60 and 90 minutes of LLOT, puncture of the Aortic Arch (AA) with needle for blood gas analysis in Radiometer ABL 700 Serie, (Denmark). • 17. After each puncture the AA puncture hole is pressed with a cotton swab. • 18. Blood gas analysis is taken every time from AA (the heart rate should be over 60). • 19. After the last blood gas analysis (90 minutes), both lungs are flushed via the PA with 20 ml of 0.9% saline at a pressure of 20 cm H2O. […] The heart-lung block is excised for storage under formaline or in the freezer awaiting immunohistopathological analysis. Alternatively, the lung can be excised without flushing to assess wet to dry ratio's. Results (FIG. 7)

[4] = tested on: transplanted left lung of rats; experiment: Single left lung transplantation in syngeneic rats; type: in vivo, rat; conditions: 24 hours after transplantation; donor lung pre-treated by intratracheal application, 500 μg/kg
Procedure: Female Wistar of Fischer rats or weighting 250 to 260 g undergo orthotopic single left lung transplantation after 20 hours cold ischemia using a cuff technique for the vessel anastomoses and a conventional running suture for the bronchial anastomosis.
Donor procedure: Animals are anesthetized by intraperitoneal administration of pentobarbital (50 mg/kg) and heparinized (500 I.U./kg). A tracheotomy is performed and the animals are ventilated trough a cannula with 100% O2 by a Harvard rodent ventilator (Harvard apparatus, South Natick, Mass.) at a tidal volume of 10 ml/kg. […] Both lungs are flushed with 20 cc of low-potassium dextran-solution (LPD) (Perfadex®, Kabi Pharmacia, Sweden) at a pressure of 20 cm H2O. The trachea is then tied in end-inspiration. After removal of the heart-lung block, 14 gauge cuffs are placed around the pulmonary artery and vein, and the vessels are inverted and tied onto the cuff. The lung is stored in LPD solution at 4° C. until implantation.
Recipient procedure: Transplantation was performed after 20 hours of cold ischemia (4° C.). The recipient is anesthetized by breathing Halothane in a glass chamber, intubated, and anesthesia is maintained with Halothane 2%. A left lateral thoracotomy is performed in the 4th intercostal space. The left hilium is dissected. […]

[5] = tested on: ex vivo instilled rat lung; experiment: Ex vivo rat flooded lung, model of hydrostatic edema
Procedure: In this model edema is induced by instillating 2 ml of 0.9% NaCl solution intratracheally. Alternatively, edema formation can be modulated by varying the height of the venous outflow and the perfusion buffer containing reservoir, or alternatively by varying the time the lung is exposed to the elevated pressure. […] The clearance of alveolar fluid from the lung is calculated by means of measuring the concentration of HSA, which is added to the instillate over time. Alternatively, the over time weight loss as a measure of edema resorption (high weight loss is high liquid clearance), of the artificially instilled lung can be measured. The lung tidal volume, compliance and weight are monitored continuously during the experiment. At the end of the experiment bronchoalveolar fluid and supernatant of lung homogenate is taken for measurement of inflammatory mediators.
The lungs of female Wistar rats (weight 200–250 g; Harlan-Winkelmann, Borchen, Germany) are prepared after terminal i.p. anesthesia by 160 mg/kg pentobarbitural —Na (Merial Ltd, Halbermoos, Germany) and perfused as described by Uhlig and Wolin (1994), and by Uhlig and von Bethmann (1997). All equipment is obtained from Hugo Sachs Electronics (March-Hugstetten, Germany). […] As perfusion medium, a Krebs-Henseleit buffer (38° C.) containing 2% bovine serum albumin (Fraction V, Scrva. Heidelberg, Germany), 0.1% glucose (Riedel-de-Haën Inc., Seelze, Germany), and 0.3% HEPES (ICN Biomedicals Inc., Ohio, USA) is used. The total amount of recirculating buffer is 100 ml. The lungs are suspended by the trachea and ventilated by negative pressure ventilation (inspiratory pressure: −7 cm H2O, expiratory pressure: −2 cm H2O) with 80 breaths per minute resulting in a tidal volume of approximately 2 ml. Every 5 minutes, a deep inspiratory breath (−20 cm H2O) is performed. Artificial thorax chamber pressure is measured with a differential pressure transducer (Validyne DP 45-14), and an air flow velocity with a pneumotachograh tube (Fleisch Type 0000) connected to a differential pressure transducer (Validyne DP 45-15). The perfusate flow (Narcomatic RT-500) and the arterial and venous pressure (Statham P23BB) are continuously monitored. The pH of the perfusate before entering the lung is kept at 7.25 to 7.35 by automatic bubbling of the buffer with CO2 as soon as the pH exceeds this range. A weight transducer is integrated into the chamber lid which allows the continuous assessment of lung weight. Data are recorded on a Pentium II computer using the Mathlab Sofware package (Mathworks, Inc., Nattick Mass., USA). For lung mechanics, the data are analyzed by applying the following formula: P=1/C*VT+RLdV/dT
Where P is chamber pressure, C pulmonary compliance, VT tidal volume, and RL airway resistance. All lung physiology parameters were normalized to time point 0, i.e. after the end of the preconditioning perfusion of 40 minutes.

| Sequence | lung weight change over time after alveolar flooding (isolated rat lungs [1]; 2 hours reperfusion after 2 ml saline, TNF 5 μg, peptides 1 mg) | lung mechanics (peak AWP, Cdyn, Raw) after alveolar flooding (isolated rat lungs [1]; 2 hours reperfusion, TNF 5 μg, peptides 1 mg) | fraction of intratracheal instilled saline lost (isolated rat lungs [1]; at 2 hours, 1 mg) | inflation volume at lower inflection point (isolated rat lungs [1]; end of 2-hour reperfusion, 1 mg) | lower inflection point of inspiratory quasi-static PV curve (isolated rat lungs [1]; end of 2-hour reperfusion, TNF 5 μg, peptide 1 mg) | leukocyte infiltration (lung histology) (isolated rat lungs [2]) | pCO2 levels ([3]; 500 μg/kg to 5 μg/kg, data not shown) | pO2 blood gas levels ([3]; 6 to 90 minutes of LLOT, cyclic hum Ltip 500 μg/kg to 5 μg/kg, hum mut Tip 500 μg/kg) | gain in pO2 blood gas ([3]; iv application) | pO2 [4] | clearing alveolar fluid content ex vivo ([5]; after intratracheal instillation, summary in words) | activity in fluid clearance ([5]; measured 80 minutes after instillation, summary in words) | Weight loss of ex vivo instilled rat lung over 80 min ([5]; synthetic peptide 1000 μg/lung) | Weight loss of ex vivo instilled rat lung over 100 min ([5]; synthetic peptide 1000 μg/lung) |
| --- | --- | --- | --- | --- | --- | --- | --- | --- | --- | --- | --- | --- | --- | --- |
| CGPKDTPEGAELKPWYC (disulfide 1-17; listed as Mus musculus) [cyclic mu Ltip] | progressively decreased in weight | progressive improvement in lung mechanics | approximately half | 3.4 ± 0.9 mL | 17.2±1.6 cmH2O | did not show this increased leukocyte infiltration | – | – | – | – | – | – | – | – |
| CGQRETPEGAEAKPWYC [cyclic hum Ltip] | – | – | – | – | – | – | lower pCO2 levels | significantly much better pO2 levels | significantly increased gain in pO2 blood gas | 395+/−95 mmHg | capable of clearing alveolar fluid content | equally active | 658 mg and 585 mg and 663 mg and 648 mg and 575 mg and 931 mg and 900 mg and 918 mg | 1009 mg and 744 mg and 685 mg and 663 mg and 758 mg and 694 mg and 1004 mg and 1000 mg |
